Legend:
[1] = target: T1, Prostaglandin G/H synthase 1 (Ovis aries) (UniProt P05979); assay: Inhibition of ovine COX1 at 10 uM
T1 sequence (whole entry): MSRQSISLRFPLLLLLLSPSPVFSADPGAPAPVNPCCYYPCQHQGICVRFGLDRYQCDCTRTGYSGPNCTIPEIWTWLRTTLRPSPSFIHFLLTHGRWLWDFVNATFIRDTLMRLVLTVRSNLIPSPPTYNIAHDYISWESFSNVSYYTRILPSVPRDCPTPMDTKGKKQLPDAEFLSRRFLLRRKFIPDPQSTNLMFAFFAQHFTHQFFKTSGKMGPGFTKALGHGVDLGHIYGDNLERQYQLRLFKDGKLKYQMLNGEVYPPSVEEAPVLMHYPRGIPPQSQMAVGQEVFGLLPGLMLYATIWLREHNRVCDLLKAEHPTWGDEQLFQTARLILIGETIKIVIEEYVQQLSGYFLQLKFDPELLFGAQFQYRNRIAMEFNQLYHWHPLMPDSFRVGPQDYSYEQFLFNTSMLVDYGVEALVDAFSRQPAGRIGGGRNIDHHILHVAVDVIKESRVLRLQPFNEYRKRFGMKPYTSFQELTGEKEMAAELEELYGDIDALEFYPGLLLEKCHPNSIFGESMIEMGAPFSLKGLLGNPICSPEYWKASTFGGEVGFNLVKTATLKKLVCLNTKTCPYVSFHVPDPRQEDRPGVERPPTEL

Ovis aries = organism: Ovis aries; assay: Selectivity index, Ratio of IC50 for ovine COX2 to IC50 for ovine COX1
[2] = Partition coefficient, log P of the compound; format: physicochemical; conditions: octanol/water
[3] = target: T2, Prostaglandin G/H synthase 1 (Ovis aries, UniProt P05979)
T2 sequence (P05979 whole entry): T1 sequence (whole entry)

Row | SMILES | inhibition [1] | Ratio IC50 (Ovis aries) | logP [2] | IC50 [3]
1 | Cc1ccc(S(=O)(=O)n2cc([C@@]3(O)C[C@H](CSC#N)OC3=O)c3ccccc32)cc1 | 65% | > 1000 | 1.78 | < 10 µM
2 | CCSC[C@H]1C[C@](O)(c2cn(S(=O)(=O)c3ccc(C)cc3)c3ccccc23)C(=O)O1 | 35% | < 1000 | 2.38 | > 10 µM
3 | CS(=O)(=O)c1ccc(C2=C(c3ccccc3)C(=O)OC2)cc1 | 75% |  |  | 
4 | Cc1ccc(S(=O)(=O)n2cc([C@@]3(O)C[C@H](CI)OC3=O)c3ccccc32)cc1 | 40% |  | 2.49 | > 10 µM
